According to publication PMC7306898, “Concentration-Dependent Activity of Hydromethylthionine on Clinical Decline and Brain Atrophy in a Randomized Controlled Trial in Behavioral Variant Frontotemporal Dementia” (Journal of Alzheimer's Disease, 2020):

Columns and labels:
[1] = tested on: bvFTD patients; assay: Frontotemporal volume (FTV) change by MRI (Tensor-Based Morphometry); type: in vivo, human; conditions: Patients receiving 8 mg/day, vs Cmax,ss ≤[…], 52 weeks
Source text: (§1) The two doses were provided in identical blister packages as visually identical oral tablets to be taken for up to 52 weeks. The primary outcome was the Addenbrookes Cognitive Examination – Revised (ACE-R). The Functional Activities Questionnaire (FAQ) and reduction in progression of whole brain atrophy were alternative co-primary outcomes. Other outcomes included: Modified Alzheimer’s Disease Cooperative Study – Clinical Global Impression of Change (Modified-CGIC) determined by a third independent rater; Frontotemporal Dementia Rating Scale (FRS); MMSE (from MMSE items incorporated into ACE-R); Addenbrookes Cognitive Examination – III (a revised version of ACE-R which excludes MMSE items subject to copyright restrictions); change in brain volume measured by MRI in frontal and temporal lobes (FTV) and lateral ventricles (LVV); and the effect of hydromethylthionine in patients with known genetic mutations associated with bvFTD. Blood was collected prospectively for the purpose of population PK analyses.
MRI scans were obtained at screening and weeks 16, 32, and 52. The acquisition protocol was standardized across sites and all data were centrally collected, quality-controlled, and analyzed by the imaging core laboratory (Bioclinica). MRI data included a 3D sagittal T1-weighted sequence (using parameters compatible with the ADNI protocol) which was used for all volumetric analyses. […]

[2] = tested on: bvFTD patients; assay: MMSE, 52-week Phase III trial; type: in vivo, human
Source text: as §1
(§2) The primary analyses were specified as a mixed model, repeated-measures analysis with an unstructured covariance matrix and no imputation for missing data. […]

[3] = tested on: bvFTD patients; assay: Addenbrookes Cognitive Examination – III (ACE-III), 52-week Phase III trial; type: in vivo, human
Source text: as §1, §2

[4] = tested on: red blood cells; conditions: cited from earlier work
[5] = tested on: subjects with AD or bvFTD; design: method as in Developmental Safety Update Report #3; conditions: 1713 subjects randomized to LMTM (or matching placebo), blinded, as of 14 October 2014 ref Developmental Safety Update Report #3; cited from earlier work
[6] = 8 mg/day (n = 110), modeled change from baseline at 52 weeks
[7] = 200 mg/day (n = 104) vs 8 mg/day, 52 weeks

In the case of `CN(C)c1ccc2c(c1)Sc1cc(N(C)C)ccc1N2` [hydromethylthionine, leuco-methylthioninium bis(hydromethanesulphonate)], the “FTV: Difference±SEM for Cmax,ss > […]” value [1] is reported as 0.72±0.27 cm^3, the “MMSE: Decline±SEM for LMTM 8 mg/day group” value [2, 6] is reported as “–3.41±0.53” and the “MMSE: Difference±SEM from LMTM 8 mg/day for 200 mg/day” value [2, 7] is reported as “–0.12±0.80”. The “ACE-III: Decline±SEM for LMTM 8 mg/day group” value [3, 6] was “–10.70±1.55”, the “ACE-III: Difference±SEM from LMTM 8 mg/day for 200 mg/day” value [3, 7] was 0.44±2.27 and the “efficiency of uptake into red blood cells relative to MTC” value [4] was 20 fold. For the same molecule, the “cases of possible serotonin toxicity reported as AEs” value [5] was 2.
